For 17 molecules, CC50 and EC50 results are on record in patent US20120295920A1, “5-AMINO-4-HYDROXYPENTOYL AMIDES” (priority 2009, published 2012).

Where two headings read alike, the source gives them in different places.

A short description of series [1]: General toxicity assay on mock-infected MT4 cells with CMV-EGFP reporter (CC50). Format: cell-based. The following applies: human; mock-infected MT4 cells with CMV-EGFP reporter; read-out: TOX-MT4CMV (CC50).
Another series concerns HIV-1 wild-type strain. Nature of the series: General antiviral assay, cell-based virus replication in MT4-LTR-EGFP cells, wild-type strain. The following applies: wild-type strain IIIB, MT4-LTR-EGFP cells. The method, boiled down:
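HIV LTR-driven EGFP reporter MT4 cells (150,000 cells/ml) infected at MOI 0.0025 with or without inhibitor at various concentrations. Read-out either GFP fluorescence on day 3 post-infection or resazurin cell viability on day 4.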

Series [2] relates to HIV-1 Strain B (M046I, I050V). Nature of the series: microbe, parasite or virus in culture. It counts as cell-based. In short, it runs like this: (§1)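 MT4 cells stably carrying an HIV LTR-driven EGFP reporter (150,000 cells/ml) were infected at MOI 0.0025 with or without inhibitor dilutions. Replication was read either as GFP fluorescence on day 3 post-infection or as cell viability by resazurin on day 4.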

The test system of series [3] is HIV-1 Strain A (M046I, I084V). Nature of the series: microbe, parasite or virus in culture. It counts as cell-based. The method, boiled down:
as §1

The subject of series [4] is HIV-1 Strain C (G048G/V, V082A). Nature of the series: microbe, parasite or virus in culture. Format: cell-based. The method, boiled down:
as §1

Another series deals with HIV-1 IIIB. Nature of the series: 50% HS-Rezazurin: antiviral assay in the presence of 50% human serum, MT-4 cells, resazurin cell viability. Format: cell-based. In short, it runs like this:
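MT-4 cells infected with HIV-1 IIIB (MOI 0.001 to 0.01 CCID50/cell) for 1 h, washed, then plated onto serial compound dilutions in 50% human serum (10% FCS alternative). After 4 days, EC50 derived from resazurin cell viability.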

Another series relates to mock-infected MT4 cells. Nature of the series: General toxicity assay on mock-infected MT4 cells with CMV-EGFP reporter (CC50). Format: cell-based.
The mark [5] stands for this setting: Human immunodeficiency virus 1, read-out: B EC50.
Setting [6] is: Human immunodeficiency virus 1, read-out: A EC50.
Where [7] appears, read: Human immunodeficiency virus 1, read-out: C EC50.
Where [8] appears, read: Human immunodeficiency virus 1, IIIB, MT4, 96 h.
[9] abbreviates: MT4LTR cells, read-out: TOX-MT4LTR (CC50).
Setting [10] is: mock-infected MT4 cells with CMV-EGFP reporter, read-out: TOX-MT4CMV (CC50).
Setting [11] is: clinical isolate Strain B, read-out: B EC50.
[12] abbreviates: clinical isolate Strain A, read-out: A EC50.
Setting [13] is: clinical isolate Strain C, read-out: C EC50.

Regarding `COC(=O)N[C@H](C(=O)N[C@@H](Cc1ccc(-c2cc(C)nc(C)c2)cc1)[C@@H](O)C[C@@H](Cc1cccc(Cl)c1)C(=O)N[C@H]1c2ccccc2OC[C@H]1O)C(C)(C)C` [Compound 4], the CC50 in series [1] is over 32000 nM. Moreover, the concentration for a half-maximal effect (EC50) amounted to 5.6 nM with HIV-1 wild-type strain (Human immunodeficiency virus 1); 3.9 nM in series [2] (setting [5]); 3.9 nM in series [3] (setting [6]); 2.7 nM in series [4] (setting [7]); 31.2 nM with HIV-1 IIIB (setting [8]).

For `COC(=O)N[C@H](C(=O)N[C@@H](Cc1ccc(-c2cnc(C(C)C)s2)cc1)[C@@H](O)C[C@@H](Cc1ccccc1F)C(=O)N[C@H]1c2cc(Cl)ccc2OC[C@H]1O)C(C)(C)C` [Compound 32], the 50% cytotoxic concentration (CC50) in series [1] stood at 2200 nM. Also, the EC50 with HIV-1 wild-type strain (Human immunodeficiency virus 1) was determined as 5.9 nM; in series [2] (setting [5]) it was 3.7 nM; in series [3] (setting [6]), 5 nM; in series [4] (setting [7]), 3.1 nM; in the series on HIV-1 IIIB (setting [8]), 28.6 nM.

Take `COC(=O)N[C@H](C(=O)N[C@@H](Cc1ccc(-c2ccc(OC)nc2)cc1)[C@@H](O)C[C@@H](Cc1cccc(F)c1)C(=O)N[C@H]1c2ccc(F)cc2OC[C@H]1O)C(C)(C)C` [Compound 85]: the CC50 in the series with mock-infected MT4 cells (setting [9]) and in the series on mock-infected MT4 cells (setting [10]) was over 32000 nM in each case. Further, the concentration giving a half-maximal response (EC50) in the series with HIV-1 wild-type strain was 2.9 nM; in series [2] (setting [11]), 1.3 nM; in series [3] (setting [12]), 3 nM; in series [4] (setting [13]), 1.1 nM; in the series with HIV-1 IIIB, 17.5 nM.

As to `COC(=O)N[C@H](C(=O)N[C@@H](Cc1ccc(-c2ccc(N(C)C)nc2)cc1)[C@@H](O)C[C@@H](Cc1ccccc1F)C(=O)N[C@H]1c2ccc(Cl)cc2OC[C@H]1O)C(C)(C)C` [Compound 86], the CC50 in the series with mock-infected MT4 cells (setting [9]) was over 32000 nM. Besides, the EC50 in the series on HIV-1 wild-type strain turned out to be 2.6 nM; in series [2] (setting [11]), 1.4 nM; in series [3] (setting [12]) it was 7.5 nM; in series [4] (setting [13]), 1.3 nM; in the series on HIV-1 IIIB, 17.1 nM.

With `COC(=O)N[C@H](C(=O)N[C@@H](Cc1ccc(-c2ccc(N(C)C)nc2)cc1)[C@@H](O)C[C@@H](Cc1ccccc1F)C(=O)N[C@H]1[C@H](C)CC[C@H]1O)C(C)(C)C` [Compound 87], the CC50 in the series on mock-infected MT4 cells (setting [10]) is over 32000 nM. The EC50 was found to be 4.7 nM in the series on HIV-1 wild-type strain; 1.9 nM in series [2] (setting [11]); 8 nM in series [3] (setting [12]); 5.4 nM in series [4] (setting [13]); 14.4 nM in the series with HIV-1 IIIB.

`CNC(=O)[C@@H](NC(=O)[C@H](Cc1ccccc1F)C[C@H](O)[C@H](Cc1ccc(-c2ccc(OC)nc2)cc1)NC(=O)[C@@H](NC(=O)OC)C(C)(C)C)C(C)(C)C` [Compound 88]: the CC50 with mock-infected MT4 cells (setting [10]) is over 32000 nM. The EC50 in the series on HIV-1 wild-type strain was 3.4 nM; in series [2] (setting [11]), 2.8 nM; in series [3] (setting [12]), 4.8 nM; in series [4] (setting [13]), 3 nM; in the series with HIV-1 IIIB it was 9.9 nM.

Regarding `COC(=O)N[C@H](C(=O)N[C@@H](Cc1ccc(-c2ccc(OC)nc2)cc1)[C@@H](O)C[C@@H](Cc1ccccc1Cl)C(=O)N[C@H]1[C@H](C)CCC[C@H]1O)C(C)(C)C` [Compound 91], the half-maximal cytotoxic concentration (CC50) amounted to 16000 nM with mock-infected MT4 cells (setting [9]) and 17000 nM in the series on mock-infected MT4 cells (setting [10]). The EC50 in the series on HIV-1 wild-type strain is 1.1 nM; in series [2] (setting [11]), 0.7 nM; in series [3] (setting [12]) it was 2.6 nM; in series [4] (setting [13]) it was 1 nM; with HIV-1 IIIB, 3.2 nM.

`COCCNC(=O)[C@@H](NC(=O)[C@H](Cc1cccc(F)c1)C[C@H](O)[C@H](Cc1ccc(-c2ccc(OC)nc2)cc1)NC(=O)[C@@H](NC(=O)OC)C(C)(C)C)C(C)(C)C` [Compound 92]: the 50% cytotoxic concentration (CC50) in the series on mock-infected MT4 cells (setting [9]) and in the series with mock-infected MT4 cells (setting [10]) was over 32000 nM in each case. The EC50 in the series with HIV-1 wild-type strain worked out at 2.6 nM; in series [2] (setting [11]), 1.8 nM; in series [3] (setting [12]) it was 4.2 nM; in series [4] (setting [13]), 2.9 nM; in the series on HIV-1 IIIB it was 8.4 nM.

As for `COC(=O)N[C@H](C(=O)N[C@@H](Cc1ccc(-c2ccc(OC)nc2)cc1)[C@@H](O)C[C@@H](Cc1cccc(OC(F)(F)F)c1)C(=O)N[C@H]1[C@H](C)CCC[C@H]1O)C(C)(C)C` [Compound 94], in the series with mock-infected MT4 cells (setting [9]), the CC50 is over 32000 nM. Further, the EC50 turned out to be 0.9 nM in the series with HIV-1 wild-type strain; 0.8 nM in series [2] (setting [11]); 1.9 nM in series [3] (setting [12]); 1.4 nM in series [4] (setting [13]); 7.1 nM in the series on HIV-1 IIIB.

In the case of `COC(=O)N[C@H](C(=O)N[C@@H](Cc1ccc(-c2ccc(OC)nc2)cc1)[C@@H](O)C[C@@H](Cc1ccccc1Cl)C(=O)N[C@H]1c2ccsc2CC[C@H]1O)C(C)(C)C` [Compound 95], the CC50 with mock-infected MT4 cells (setting [9]) stood at 23000 nM. Also, the EC50 in the series on HIV-1 wild-type strain was found to be 1.5 nM; in series [2] (setting [11]), 1.3 nM; in series [3] (setting [12]), 2.2 nM; in series [4] (setting [13]) it was 1 nM; in the series on HIV-1 IIIB, 5.9 nM.

As to `COc1ccc(-c2ccc(CC(NC(=O)C(NC(=O)CN3CCCC3)C(C)(C)C)C(O)CC(Cc3ccccc3F)C(=O)NC3C(C)CCCC3O)cc2)cn1` (stereo not shown) [Compound 97], the CC50 with mock-infected MT4 cells (setting [9]) was over 32000 nM. Further, the concentration giving a half-maximal response (EC50) is 5.6 nM in the series with HIV-1 wild-type strain; 2.8 nM in series [2] (setting [11]); 4.7 nM in series [3] (setting [12]); 2 nM in series [4] (setting [13]); 12.7 nM in the series on HIV-1 IIIB.

Turning to `COCCNC(=O)[C@@H](NC(=O)[C@H](Cc1ccccc1Cl)C[C@H](O)[C@H](Cc1ccc(-c2ccc(OC)nc2)cc1)NC(=O)[C@@H](NC(=O)OC)C(C)(C)C)C(C)(C)C` [Compound 98], in the series on mock-infected MT4 cells (setting [9]), the CC50 is over 32000 nM. Moreover, the EC50 stood at 2.1 nM with HIV-1 wild-type strain; 1 nM in series [2] (setting [11]); 3.7 nM in series [3] (setting [12]); 2.2 nM in series [4] (setting [13]); 11.2 nM in the series with HIV-1 IIIB.

For `COC(=O)NC(C(=O)NC(Cc1ccc(-c2ccc(OC)nc2)cc1)C(O)CC(Cc1ccccc1F)C(=O)NC1C(C)CCC1O)C(C)(C)C` (stereo not shown) [Compound 99], the CC50 in the series on mock-infected MT4 cells (setting [9]) was over 32000 nM. Moreover, the EC50 was 1.1 nM with HIV-1 wild-type strain; 0.6 nM in series [2] (setting [11]); 1.7 nM in series [3] (setting [12]); 0.9 nM in series [4] (setting [13]); 3.3 nM in the series on HIV-1 IIIB.

On to `COC(=O)NC(C(=O)NC(Cc1ccc(-c2ccc(OC)nc2)cc1)C(O)CC(Cc1ccccc1F)C(=O)NC1CCCCC1O)C(C)(C)C` (stereo not shown) [Compound 100], for which, in the series on mock-infected MT4 cells (setting [9]), the CC50 is over 32000 nM. Further, the EC50 in the series on HIV-1 wild-type strain is 1.8 nM; in series [2] (setting [11]), 0.7 nM; in series [3] (setting [12]), 1.8 nM; in series [4] (setting [13]), 0.8 nM; in the series with HIV-1 IIIB it was 5.9 nM.

Regarding `COC(=O)NC(C(=O)NC(Cc1ccc(-c2ccc(OC)nc2)cc1)C(O)CC(Cc1ccccc1F)C(=O)NC1c2cc(C)cc(F)c2OCC1O)C(C)(C)C` (stereo not shown) [Compound 101], the cytotoxic concentration (CC50) with mock-infected MT4 cells (setting [9]) was over 32000 nM. Further, the concentration for a half-maximal effect (EC50) with HIV-1 wild-type strain came out at 2.8 nM; in series [2] (setting [11]), 2.4 nM; in series [3] (setting [12]) it was 2.5 nM; in series [4] (setting [13]), 1.7 nM; in the series with HIV-1 IIIB, 9.8 nM.

With `COC(=O)NC(C(=O)NC(Cc1ccc(-c2ccc(OC)nc2)cc1)C(O)CC(Cc1ccccc1F)C(=O)NC1c2cc(F)cc(C)c2OCC1O)C(C)(C)C` (stereo not shown) [Compound 102], the 50% cytotoxic concentration (CC50) with mock-infected MT4 cells (setting [9]) was over 32000 nM. The 50% effective concentration (EC50) with HIV-1 wild-type strain came to 2.3 nM; in series [2] (setting [11]), 3.3 nM; in series [3] (setting [12]) it was 5.4 nM; in series [4] (setting [13]), 1.5 nM; in the series with HIV-1 IIIB, 6.8 nM.

On to `Cc1cccc(C)c1OCC(=O)N[C@@H](Cc1ccccc1)[C@@H](O)C[C@H](Cc1ccccc1)NC(=O)[C@H](C(C)C)N1CCCNC1=O` [LPV], for which the CC50 with mock-infected MT4 cells (setting [9]) was over 32000 nM; in the series on mock-infected MT4 cells (setting [10]) it was 20000 nM. The EC50 was 13 nM with HIV-1 wild-type strain; 320 nM in series [2] (setting [11]); 110 nM in series [3] (setting [12]); 31 nM in series [4] (setting [13]); 61 nM with HIV-1 IIIB.
